The subject of this test is L1210 leukemia ip in BDF1 mice, survival T/C. Briefly: NCI In Vivo Anticancer Drug Screen. Data for tumor model L1210 Leukemia (intraperitoneal) in B6D2F1 (BDF1) mice. The conditions noted are these: higher = longer survival. The gist of the method: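 Survival endpoint. Drug-treated group vs vehicle group, expressed as T divided by C. Tumor passaged by transplantation.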

The mark [1] stands for this setting: endpoint: mean survival time, dose: 100.0 mg/kg/injection, schedule: Q04DX003 (ip), vehicle: saline.
Setting [2] is: endpoint: mean survival time, dose: 200.0 mg/kg/injection, schedule: Q04DX003 (ip), vehicle: saline.
Setting [3] is: endpoint: mean survival time, dose: 100.0 mg/kg/injection, schedule: Q01DX009 (ip), vehicle: Klucel (hydroxypropylcellulose) (HPC).
[4] abbreviates: endpoint: mean survival time, dose: 200.0 mg/kg/injection, schedule: Q01DX009 (ip), vehicle: Klucel (hydroxypropylcellulose) (HPC).
The mark [5] stands for this setting: endpoint: mean survival time, dose: 400.0 mg/kg/injection, schedule: Q01DX009 (ip), vehicle: Klucel (hydroxypropylcellulose) (HPC).
[6] abbreviates: endpoint: mean survival time, dose: 100.0 mg/kg/injection, schedule: Q04DX002 (ip), vehicle: Klucel (hydroxypropylcellulose) (HPC).
Where [7] appears, read: endpoint: mean survival time, dose: 200.0 mg/kg/injection, schedule: Q04DX002 (ip), vehicle: Klucel (hydroxypropylcellulose) (HPC).
Setting [8] is: endpoint: mean survival time, dose: 100.0 mg/kg/injection, schedule: Q04DX003 (ip), vehicle: Klucel (hydroxypropylcellulose) (HPC).
Setting [9] is: endpoint: mean survival time, dose: 200.0 mg/kg/injection, schedule: Q04DX003 (ip), vehicle: Klucel (hydroxypropylcellulose) (HPC).
The mark [10] stands for this setting: endpoint: mean survival time, dose: 400.0 mg/kg/injection, schedule: Q04DX003 (ip), vehicle: Klucel (hydroxypropylcellulose) (HPC).
Where [11] appears, read: endpoint: mean survival time, dose: 25.0 mg/kg/injection, schedule: Q01DX009 (ip), vehicle: saline.
Where [12] appears, read: endpoint: mean survival time, dose: 25.0 mg/kg/injection, schedule: Q04DX003 (ip), vehicle: saline.
[13] abbreviates: endpoint: mean survival time, dose: 50.0 mg/kg/injection, schedule: Q04DX003 (ip), vehicle: saline.
The mark [14] stands for this setting: endpoint: mean survival time, dose: 100.0 mg/kg/injection, schedule: Q01DX009 (ip), vehicle: saline.
Where [15] appears, read: endpoint: mean survival time, dose: 200.0 mg/kg/injection, schedule: Q01DX009 (ip), vehicle: saline.

Inconclusive results and toxic doses are left out.

Regarding `CCCc1cn(C(=O)NC2CCCCC2)c2ccccc12`, the T/C reads like this: (endpoint: mean survival time, dose: 100.0 mg/kg/injection, schedule: Q01DX001 (ip), vehicle: saline) 94 % of control; under setting [1], 106 % of control; (endpoint: mean survival time, dose: 200.0 mg/kg/injection, schedule: Q01DX001 (ip), vehicle: saline) 94 % of control; under setting [2], 112 % of control; (endpoint: mean survival time, dose: 400.0 mg/kg/injection, schedule: Q01DX001 (ip), vehicle: saline) 87 % of control; (endpoint: mean survival time, dose: 400.0 mg/kg/injection, schedule: Q04DX003 (ip), vehicle: saline) 93 % of control.

As to `O=C(O)COc1ccc(/C=C/c2ccnc3ccccc23)cc1`, the T/C is, setting by setting: under setting [3], 94 % of control; under setting [4], 99 % of control; under setting [5], 86 % of control.

Consider `CC1(C)CCCC(C)(C)N1`, for which the T/C (endpoint: mean survival time, dose: 50.0 mg/kg/injection, schedule: Q01DX001 (ip), vehicle: saline) is 94 % of control.

Regarding `Cc1cc(C)c(NC(N)=S)cc1C`, the T/C was 92 % of control under setting [6] and 94 % of control under setting [7].

For `COc1ccc(N=C(N)NC#N)cc1`, the T/C under setting [3] was 100 % of control; the T/C under setting [8] was 93 % of control; the T/C under setting [4] is 97 % of control; the T/C under setting [9] is 92 % of control; the T/C under setting [10] was 97 % of control.

For `Cc1ccc(S(=O)(=O)NNC(=O)c2ccc[nH]2)cc1`, the T/C was 101 % of control (endpoint: mean survival time, dose: 75.0 mg/kg/injection, schedule: Q01DX001 (ip), vehicle: saline); 101 % of control (endpoint: mean survival time, dose: 150.0 mg/kg/injection, schedule: Q01DX001 (ip), vehicle: saline); 96 % of control (endpoint: mean survival time, dose: 300.0 mg/kg/injection, schedule: Q01DX001 (ip), vehicle: saline).

For the molecule `O=C1c2ccccc2C(=O)c2c(NCCNCCO)ccc(NCCNCCO)c21`, the T/C reads like this: (endpoint: mean survival time, dose: 2.0 mg/kg/injection, schedule: Q01DX009 (ip), vehicle: Klucel (hydroxypropylcellulose) (HPC)) 204 % of control; (endpoint: mean survival time, dose: 2.0 mg/kg/injection, schedule: Q01DX009 (ip), vehicle: saline with Tween-80) 162 % of control; (endpoint: mean survival time, dose: 2.0 mg/kg/injection, schedule: Q01DX009 (ip), vehicle: water) 196 % of control; (endpoint: mean survival time, dose: 4.0 mg/kg/injection, schedule: Q01DX009 (ip), vehicle: Klucel (hydroxypropylcellulose) (HPC)) 306 % of control; (endpoint: mean survival time, dose: 4.0 mg/kg/injection, schedule: Q01DX009 (ip), vehicle: saline with Tween-80) 153 % of control; (endpoint: mean survival time, dose: 4.0 mg/kg/injection, schedule: Q01DX009 (ip), vehicle: water) 159 % of control. The T/C was 491 % of control (endpoint: mean survival time, dose: 8.0 mg/kg/injection, schedule: Q01DX009 (ip), vehicle: Klucel (hydroxypropylcellulose) (HPC)); 220 % of control (endpoint: mean survival time, dose: 8.0 mg/kg/injection, schedule: Q01DX009 (ip), vehicle: saline with Tween-80); 498 % of control (endpoint: mean survival time, dose: 8.0 mg/kg/injection, schedule: Q01DX009 (ip), vehicle: water); 347 % of control (endpoint: mean survival time, dose: 16.0 mg/kg/injection, schedule: Q01DX009 (ip), vehicle: Klucel (hydroxypropylcellulose) (HPC)); 253 % of control (endpoint: mean survival time, dose: 16.0 mg/kg/injection, schedule: Q01DX009 (ip), vehicle: saline with Tween-80); 396 % of control (endpoint: mean survival time, dose: 16.0 mg/kg/injection, schedule: Q01DX009 (ip), vehicle: water). The T/C (endpoint: mean survival time, dose: 32.0 mg/kg/injection, schedule: Q01DX009 (ip), vehicle: Klucel (hydroxypropylcellulose) (HPC)) was 118 % of control; the T/C (endpoint: mean survival time, dose: 32.0 mg/kg/injection, schedule: Q01DX009 (ip), vehicle: saline with Tween-80) is 89 % of control; the T/C (endpoint: mean survival time, dose: 32.0 mg/kg/injection, schedule: Q01DX009 (ip), vehicle: water) was 93 % of control; the T/C (endpoint: median survival time, dose: 8.0 mg/kg/injection, schedule: Q01DX005 (oral), vehicle: Klucel (hydroxypropylcellulose) (HPC)) was 90 % of control; the T/C (endpoint: median survival time, dose: 8.0 mg/kg/injection, schedule: Q01DX005 (oral), vehicle: water) is 101 % of control; the T/C (endpoint: median survival time, dose: 16.0 mg/kg/injection, schedule: Q01DX005 (oral), vehicle: Klucel (hydroxypropylcellulose) (HPC)) was 98 % of control. Further, the T/C reads like this: (endpoint: median survival time, dose: 16.0 mg/kg/injection, schedule: Q01DX005 (oral), vehicle: water) 101 % of control; (endpoint: median survival time, dose: 32.0 mg/kg/injection, schedule: Q01DX005 (oral), vehicle: Klucel (hydroxypropylcellulose) (HPC)) 94 % of control; (endpoint: median survival time, dose: 32.0 mg/kg/injection, schedule: Q01DX005 (oral), vehicle: water) 101 % of control; (endpoint: median survival time, dose: 64.0 mg/kg/injection, schedule: Q01DX005 (oral), vehicle: Klucel (hydroxypropylcellulose) (HPC)) 100 % of control; (endpoint: median survival time, dose: 64.0 mg/kg/injection, schedule: Q01DX005 (oral), vehicle: water) 97 % of control; (endpoint: median survival time, dose: 128.0 mg/kg/injection, schedule: Q01DX005 (oral), vehicle: Klucel (hydroxypropylcellulose) (HPC)) 94 % of control. In addition, the T/C is 100 % of control (endpoint: median survival time, dose: 128.0 mg/kg/injection, schedule: Q01DX005 (oral), vehicle: water); 98 % of control (endpoint: median survival time, dose: 256.0 mg/kg/injection, schedule: Q01DX005 (oral), vehicle: Klucel (hydroxypropylcellulose) (HPC)); 102 % of control (endpoint: median survival time, dose: 256.0 mg/kg/injection, schedule: Q01DX005 (oral), vehicle: water); 103 % of control (endpoint: median survival time, dose: 512.0 mg/kg/injection, schedule: Q01DX005 (oral), vehicle: Klucel (hydroxypropylcellulose) (HPC)); 106 % of control (endpoint: median survival time, dose: 512.0 mg/kg/injection, schedule: Q01DX005 (oral), vehicle: water).

With `CC(=O)Nc1cccc(N)c1`, the T/C is, setting by setting: under setting [11], 95 % of control; under setting [12], 103 % of control; (endpoint: mean survival time, dose: 50.0 mg/kg/injection, schedule: Q01DX009 (ip), vehicle: saline) 108 % of control; under setting [13], 97 % of control; under setting [14], 101 % of control; under setting [6], 86 % of control. In addition, the T/C by setting is: under setting [1], 94 % of control; under setting [7], 107 % of control.

Turning to `COC(=O)C1=C(C(=O)OC)C2CC1C1OC21` (stereo unspecified), the T/C under setting [14] was 96 % of control and the T/C under setting [15] is 98 % of control.

For the molecule `COc1ccc2ccccc2c1/C=N/N1CCCCC1`, the T/C by setting is: (endpoint: mean survival time, dose: 100.0 mg/kg/injection, schedule: Q01DX009 (ip), vehicle: saline with Tween-80) 100 % of control; (endpoint: mean survival time, dose: 200.0 mg/kg/injection, schedule: Q01DX009 (ip), vehicle: saline with Tween-80) 93 % of control; (endpoint: mean survival time, dose: 400.0 mg/kg/injection, schedule: Q01DX009 (ip), vehicle: saline with Tween-80) 100 % of control.

Take `CC(C(=O)c1ccc(F)cc1)C(O)(C(F)(F)F)C(F)(F)F` (stereo unspecified): the T/C reads like this: under setting [8], 94 % of control; under setting [9], 95 % of control; under setting [10], 103 % of control.

As to `C=CCNP(=O)(OCC)OCC`, the T/C was 101 % of control (endpoint: mean survival time, dose: 12.5 mg/kg/injection, schedule: Q01DX009 (ip), vehicle: saline); 104 % of control (endpoint: mean survival time, dose: 12.5 mg/kg/injection, schedule: Q04DX003 (ip), vehicle: saline); 87 % of control under setting [11]; 104 % of control under setting [12]; 104 % of control under setting [13]; 104 % of control under setting [14]. The T/C runs as follows: under setting [1], 101 % of control; under setting [15], 109 % of control; under setting [2], 115 % of control.

Consider `CC(=O)Nc1ccc(C=O)cc1[N+](=O)[O-]`, for which the T/C under setting [3] is 101 % of control; the T/C under setting [8] was 100 % of control; the T/C under setting [4] was 104 % of control; the T/C under setting [9] was 100 % of control; the T/C under setting [5] was 94 % of control; the T/C under setting [10] was 100 % of control.

Regarding `S=C1NC2(CCCCC2)NC12CCCCC2`, the T/C runs as follows: under setting [3], 97 % of control; under setting [8], 101 % of control; under setting [4], 98 % of control; under setting [9], 103 % of control; under setting [5], 93 % of control; under setting [10], 101 % of control.

Source of the values: PubChem BioAssay AID248 (DTP/NCI, 2004).
